{"source": "patent US8703483B2", "about": "“Reagents and methods for using human embryonic stem cells to evaluate toxicity of pharmaceutical compounds and other chemicals” (Wisconsin Alumni Research Foundation, priority 2006, dated 2014)", "system": "human embryonic stem cells", "assay": "Metabolite profiling (LC/ESI-TOF mass spectrometry) of extracellular media of hESCs treated with alcohol", "format": "cell-based", "settings": "ETOH 0.3, 24 H", "text": "Binned masses were annotated in silico by querying the neutral masses in several different databases. These databases included Metlin, Biological Magnetic Resonance Data Bank (BMRB), NIST Chemistry WebBook, and the Human Metabolome Database. A mass was considered identified when its neutral mass was within 10 ppm of a known compound annotated in one of the databases listed above."}
{"smiles": "CCO", "note": "[ETOH]", "values": [{"measurement": "Fold: 5-Methoxytryptophan, mass 234.125, RT 47.0879", "value": "−1.632", "unit": "fold"}, {"measurement": "Fold: GABA analogue, mass 171.1244, RT 26.70635", "value": 3.755, "unit": "fold"}, {"measurement": "Fold: Hexylamine, mass 101.1201, RT 10.21225", "value": 2.192, "unit": "fold"}, {"measurement": "Fold: N-Methyl-2-pyrrolidinone, mass 99.0689, RT 15.48433", "value": 1.468, "unit": "fold"}, {"measurement": "Fold: Unknown, mass 83.0372, RT 85.57399", "value": 2.472, "unit": "fold"}, {"measurement": "Fold: Unknown, mass 99.1043, RT 52.01225", "value": 3.331, "unit": "fold"}, {"measurement": "Fold: Unknown, mass 130.9541, RT 88.64043", "value": 2.025, "unit": "fold"}, {"measurement": "Fold: Unknown, mass 148.0052, RT 3.958833", "value": "−1.73", "unit": "fold"}, {"measurement": "Fold: Unknown, mass 153.0811, RT 27.80141", "value": "−1.6976", "unit": "fold"}, {"measurement": "Fold: Unknown, mass 161.0805, RT 14.22357", "value": "−6.435", "unit": "fold"}, {"measurement": "Fold: Unknown, mass 178.5546, RT 28.52393", "value": "−2.764", "unit": "fold"}, {"measurement": "Fold: Unknown, mass 194.0836, RT 22.61355", "value": "−1.703", "unit": "fold"}, {"measurement": "Fold: Unknown, mass 222.0401, RT 27.57188", "value": "−2.112", "unit": "fold"}, {"measurement": "Fold: Unknown, mass 223.119, RT 13.6845", "value": "−2.74", "unit": "fold"}, {"measurement": "Fold: Unknown, mass 229.2025, RT 32.9941", "value": "−1.377", "unit": "fold"}, {"measurement": "Fold: Unknown, mass 237.0041, RT 3.673694", "value": 2.989, "unit": "fold"}, {"measurement": "Fold: Unknown, mass 239.9592, RT 5.176232", "value": 1.64, "unit": "fold"}, {"measurement": "Fold: Unknown, mass 267.2543, RT 40.75868", "value": "−1.496", "unit": "fold"}, {"measurement": "Fold: Unknown, mass 271.9364, RT 4.86619", "value": 4.07, "unit": "fold"}, {"measurement": "Fold: Unknown, mass 275.1193, RT 22.86183", "value": "−2.237", "unit": "fold"}, {"measurement": "Fold: Unknown, mass 288.2632, RT 75.76147", "value": 1.969, "unit": "fold"}, {"measurement": "Fold: Unknown, mass 294.1531, RT 24.21651", "value": "−1.892", "unit": "fold"}, {"measurement": "Fold: Unknown, mass 298.1537, RT 66.35884", "value": 3.758, "unit": "fold"}, {"measurement": "Fold: Unknown, mass 299.1929, RT 19.66398", "value": "−1.571", "unit": "fold"}, {"measurement": "Fold: Unknown, mass 303.8875, RT 4.954547", "value": 2.07, "unit": "fold"}, {"measurement": "Fold: Unknown, mass 313.199, RT 44.09424", "value": 2.292, "unit": "fold"}, {"measurement": "Fold: Unknown, mass 324.1666, RT 30.19245", "value": "−1.593", "unit": "fold"}, {"measurement": "Fold: Unknown, mass 337.2012, RT 8.542672", "value": 1.287, "unit": "fold"}, {"measurement": "Fold: Unknown, mass 340.9252, RT 5.033976", "value": "−1.836", "unit": "fold"}, {"measurement": "Fold: Unknown, mass 342.1482, RT 68.02448", "value": "−1.853", "unit": "fold"}, {"measurement": "Fold: Unknown, mass 360.1321, RT 18.50245", "value": "−2.289", "unit": "fold"}, {"measurement": "Fold: Unknown, mass 362.2787, RT 83.72506", "value": "−2.542", "unit": "fold"}, {"measurement": "Fold: Unknown, mass 378.2956, RT 41.28494", "value": 1.636, "unit": "fold"}, {"measurement": "Fold: Unknown, mass 393.1889, RT 15.90129", "value": "−1.511", "unit": "fold"}, {"measurement": "Fold: Unknown, mass 440.0284, RT 54.46495", "value": 2.51, "unit": "fold"}, {"measurement": "Fold: Unknown, mass 444.2237, RT 51.58546", "value": 2.242, "unit": "fold"}, {"measurement": "Fold, Unknown metabolite, Mass 820.8181", "setting": "retention time 4.613879", "value": "−1.851"}, {"measurement": "Fold, Unknown metabolite, Mass 711.8344", "setting": "retention time 4.826824", "value": "−2.256"}, {"measurement": "Fold, Unknown metabolite, Mass 913.8074", "setting": "retention time 5.217833", "value": "−1.885"}, {"measurement": "Fold, Unknown metabolite, Mass 888.8041", "setting": "retention time 5.259716", "value": 1.222}, {"measurement": "Fold, Unknown metabolite, Mass 922.0048", "setting": "retention time 5.387775", "value": "−2.755"}, {"measurement": "Fold, Unknown metabolite, Mass 555.8505", "setting": "retention time 5.742094", "value": "−1.518"}, {"measurement": "Fold, metabolite Ethanesulfonic acid, Mass 579.2519", "setting": "retention time 5.903169", "value": "−1.48"}, {"measurement": "Fold, metabolite Oxidized glutathione, Mass 612.1509", "setting": "retention time 8.056862", "value": "−1.595"}, {"measurement": "Fold, Unknown metabolite, Mass 485.204", "setting": "retention time 10.8217", "value": 2.038}, {"measurement": "Fold, Unknown metabolite, Mass 482.1942", "setting": "retention time 10.82859", "value": "−1.528"}, {"measurement": "Fold, Unknown metabolite, Mass 666.3836", "setting": "retention time 16.3338", "value": "−1.371"}, {"measurement": "Fold, metabolite L-Urobilinogen, Mass 596.3543", "setting": "retention time 25.14927", "value": 1.835}, {"measurement": "Fold, Unknown metabolite, Mass 464.225", "setting": "retention time 25.3287", "value": "−1.717"}, {"measurement": "Fold, Unknown metabolite, Mass 455.2052", "setting": "retention time 28.27806", "value": "−2.509"}, {"measurement": "Fold, Unknown metabolite, Mass 447.2509", "setting": "retention time 29.86415", "value": 2.103}, {"measurement": "Fold, Unknown metabolite, Mass 444.2789", "setting": "retention time 30.05687", "value": "−1.835"}, {"measurement": "Fold, Unknown metabolite, Mass 707.3933", "setting": "retention time 30.43889", "value": "−1.792"}, {"measurement": "Fold, Unknown metabolite, Mass 466.2921", "setting": "retention time 30.46172", "value": "−1.959"}, {"measurement": "Fold, Unknown metabolite, Mass 488.305", "setting": "retention time 30.83472", "value": "−2.185"}, {"measurement": "Fold, Unknown metabolite, Mass 488.8071", "setting": "retention time 30.88032", "value": "−1.92"}, {"measurement": "Fold, Unknown metabolite, Mass 510.3182", "setting": "retention time 31.20706", "value": "−2.264"}, {"measurement": "Fold, Unknown metabolite, Mass 510.8202", "setting": "retention time 31.22083", "value": "−2.045"}, {"measurement": "Fold, Unknown metabolite, Mass 523.8187", "setting": "retention time 31.53434", "value": "−2.173"}, {"measurement": "Fold, Unknown metabolite, Mass 591.3789", "setting": "retention time 31.54325", "value": "−1.982"}, {"measurement": "Fold, Unknown metabolite, Mass 532.8335", "setting": "retention time 31.58889", "value": "−2.169"}, {"measurement": "Fold, Unknown metabolite, Mass 554.3444", "setting": "retention time 31.8519", "value": "−2.37"}, {"measurement": "Fold, Unknown metabolite, Mass 554.8471", "setting": "retention time 31.891", "value": "−2.297"}, {"measurement": "Fold, Unknown metabolite, Mass 576.3582", "setting": "retention time 32.15777", "value": "−2.209"}, {"measurement": "Fold, Unknown metabolite, Mass 541.3274", "setting": "retention time 32.24719", "value": "−2.123"}, {"measurement": "Fold, Unknown metabolite, Mass 611.871", "setting": "retention time 32.70236", "value": "−2.192"}, {"measurement": "Fold, Unknown metabolite, Mass 620.8861", "setting": "retention time 32.73907", "value": "−2.321"}, {"measurement": "Fold, Unknown metabolite, Mass 642.397", "setting": "retention time 32.95522", "value": "−2.211"}, {"measurement": "Fold, Unknown metabolite, Mass 677.9101", "setting": "retention time 33.48766", "value": "−2.647"}, {"measurement": "Fold, Unknown metabolite, Mass 463.2914", "setting": "retention time 33.5733", "value": "−1.665"}, {"measurement": "Fold, Unknown metabolite, Mass 466.615", "setting": "retention time 33.68894", "value": "−3.279"}, {"measurement": "Fold, Unknown metabolite, Mass 774.4767", "setting": "retention time 34.33545", "value": "−2.342"}, {"measurement": "Fold, Unknown metabolite, Mass 521.9924", "setting": "retention time 34.35986", "value": "−1.584"}, {"measurement": "Fold, Unknown metabolite, Mass 751.4193", "setting": "retention time 35.028", "value": "−1.703"}, {"measurement": "Fold, metabolite Neu5Acalpha2-3Galbeta1-4Glcbeta-Sp, Mass 702.2497", "setting": "retention time 40.84822", "value": 1.283}, {"measurement": "Fold, Unknown metabolite, Mass 449.2611", "setting": "retention time 44.98056", "value": "−3.471"}, {"measurement": "Fold, Unknown metabolite, Mass 467.3804", "setting": "retention time 46.51446", "value": "−2.135"}, {"measurement": "Fold, Unknown metabolite, Mass 518.3914", "setting": "retention time 46.57666", "value": "−2.707"}, {"measurement": "Fold, Unknown metabolite, Mass 539.4374", "setting": "retention time 51.52268", "value": "−1.93"}, {"measurement": "Fold, Unknown metabolite, Mass 446.0431", "setting": "retention time 54.8719", "value": "−2.221"}, {"measurement": "Fold, Unknown metabolite, Mass 707.4296", "setting": "retention time 56.18269", "value": "−2.434"}, {"measurement": "Fold, Unknown metabolite, Mass 611.4952", "setting": "retention time 56.3513", "value": "−1.9811"}, {"measurement": "Fold, Unknown metabolite, Mass 765.5211", "setting": "retention time 69.32865", "value": 1.884}, {"measurement": "Fold, Unknown metabolite, Mass 482.3062", "setting": "retention time 72.7735", "value": "−2.618"}]}
